Assay results as given in US20240360103A1, “COMPLEMENT INHIBITION” (Apellis Pharmaceuticals, Inc., priority 2021, published 2024).

Key:
C3 convertase (CVF:Bb) = C3 convertase (CVF:Bb) (Homo sapiens, UniProt P00751); experiment: C3 Convertase Assay (biochemical assay, compound contacted with CVF:Bb, then C3 substrate added)
Text: Various technologies are available for assessing provided compounds, compositions and methods. In some embodiments, a useful assay is an assay described below. […] In some embodiments, a purified, isolated or enriched C3 convertase is utilized. […] In some embodiments, a compound was first contacted with CVF:Bb, followed by addition of C3 substrates. As those skilled in the art will appreciate, products C3a and/or C3b could be detected through a number of technologies (e.g., antibodies specific for a product) and reduction of levels of one or both of them could be utilized to assess inhibition.

[1] = system: complement alternative pathway; experiment: Wieslab AP assay (Complement Alternative Pathway ELISA, human serum as source of complement); assay type: biochemical; settings: read-out: B: Wieslab AP IC50 (nM) (alternative pathway)
Text: Among other things, the present disclosure provides compounds and compositions that can modulate complement activation. In some embodiments, provided technologies inhibit complement activation. In some embodiments, provided technologies inhibit C3 convertase. Various technologies are available for assessing provided compounds, compositions and methods. In some embodiments, a useful assay is an assay described below. In some embodiments, IC50 of a provided compound measured in an assay is about or no more than about 1000, 900, 800, 700, 600, 500, 400, 300, 200, 100, 90, 80, 70, 60, 50, 40, 30, 20, or 10 nM. In some embodiments, a useful assay is a biochemical assay assessing inhibition of C3 convertase activity by a provided compound. In some embodiments, a purified, isolated or enriched C3 convertase is utilized. In some embodiments, CVF:Bb (e.g., assembled from three components Cobra Venom Factor (CVF), Complement Factor B (FB) and Complement Factor D (FD)) was utilized (certain results are presented as “A” in the Table below). In some embodiments, a compound was first contacted with CVF:Bb, followed by addition of C3 substrates. As those skilled in the art will appreciate, products C3a and/or C3b could be detected through a number of technologies (e.g., antibodies specific for a product) and reduction of levels of one or both of them could be utilized to assess inhibition. In some embodiments, a useful assay is Wieslab© assay (certain results are presented as “B” in the Table below).
In some embodiments, classical and alternative pathway activity are assessed using Wieslab© technologies. In some embodiments, Wieslab© assay were performed with a commercially available kit, using a protocol adapted for measurement of complement inhibitory activity of compounds. In some embodiments, human serum was utilized as a positive control. In some embodiments, human serum serves as a source of complement proteins, and inhibition of complement activity of a serum by various compounds were assessed. In some embodiments, a kit is COMPL AP330, Complement Alternative Pathway ELISA, Eagle Biosciences. In some embodiments, a kit is COMPL CP310, Complement Classical Pathway ELISA, Eagle Biosciences. In some embodiments, kits are available from VWR (102994-104, Complement Alternative pathway ELISA, Eagle Biosciences, Inc.; 102994-106, Complement Classical pathway ELISA, Eagle Biosciences, Inc.).
In some embodiments, a useful procedure described below is utilized. • 1. Make fresh test compound stock at 1 mM. • 2. Test compound serial dilution: dilute the stock to working stock concentrations. Add DMSO to dilution buffer using same dilution factor for the working stock so the composition of all the serial diluted stock is the same. In some embodiments, stock was serial diluted from the working stock 1:4 (for classical pathway) or 1:2 (for alternative pathway) using new diluted dilution buffers. • 3. Dilute positive controls using the dilution buffer provided with the assay kit to 2× of the final conc., for classical pathway, 50.5×. Positive control is human serum, which contains complement proteins. • 4. Add 125 μL of test compound solution and 125 μL of diluted positive control to a 96 well polypropylene plate, mix gently and cover the plate and incubate at 4° C. for 30 min. • 5. Add 100 μL/well to the assay plate and incubate at 37° C. for 1 h. Typically, controls in the assay plate, for example, buffer alone for negative control, positive control alone to verify the complement activity of the reagent. • 6. Wash plate and add 100 μL/well conjugate, incubate at room temperature for 30 min. • 7. Wash plate and add 100 μL/well substrate, then incubate at room temperature for approximately 30 minutes. Periodically monitor the absorbance at 405 nm (OD405) in the positive control alone well. • 8. Once the OD405 is >1, read the whole plate immediately. Or stop the reaction by adding 100 μL of 5 mM EDTA to each well and read within 60 minutes.

Sequence of C3 convertase (CVF:Bb) (P00751 260-764 limits assumed): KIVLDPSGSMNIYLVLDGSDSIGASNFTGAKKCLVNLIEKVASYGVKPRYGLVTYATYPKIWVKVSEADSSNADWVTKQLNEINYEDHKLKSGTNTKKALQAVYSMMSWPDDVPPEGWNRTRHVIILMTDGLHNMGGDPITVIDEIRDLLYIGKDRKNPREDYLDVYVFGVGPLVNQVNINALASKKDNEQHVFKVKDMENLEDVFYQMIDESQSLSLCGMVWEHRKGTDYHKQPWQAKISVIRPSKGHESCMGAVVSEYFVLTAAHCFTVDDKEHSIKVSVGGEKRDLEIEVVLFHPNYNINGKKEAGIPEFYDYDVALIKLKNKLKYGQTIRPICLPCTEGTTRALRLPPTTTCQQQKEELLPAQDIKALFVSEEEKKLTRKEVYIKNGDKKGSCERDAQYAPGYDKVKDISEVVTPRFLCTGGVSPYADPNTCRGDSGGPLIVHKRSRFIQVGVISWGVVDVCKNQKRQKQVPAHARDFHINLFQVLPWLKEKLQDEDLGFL

SMILES	IC50 (C3 convertase (CVF:Bb))	IC50 [1]
COCCN1CCN(Cc2c(OC)cc(C)c3[nH]ccc23)C(c2ccc(C(=O)O)cc2)C1 (stereo not shown)	221 nM	–
COc1cc(C)c2[nH]ccc2c1CN1CCN(C(C)CC(F)(F)F)C[C@H]1c1ccc(C(=O)O)cc1 (stereo partly shown)	–	110 nM
COc1cc(C)c2[nH]ccc2c1CN1CCNCC1c1ccc(C(=O)O)cc1 (stereo not shown)	> 10000 nM	–
COc1cc(C)c2[nH]ccc2c1CN1CCN(C2COC2)CC1c1ccc(C(=O)O)cc1 (stereo not shown)	> 10000 nM	–
COc1cc(C)c2[nH]ccc2c1CN1CCN(Cc2ccccc2)CC1c1ccc(C(=O)O)cc1 (stereo not shown)	5240 nM	–
COc1cc(C)c2[nH]ccc2c1CN1CCN(C)CC1c1ccc(C(=O)O)cc1 (stereo not shown)	163 nM	1570 nM
CCC(C)CN1CCN(Cc2c(OC)cc(C)c3[nH]ccc23)C(c2ccc(C(=O)O)cc2)C1 (stereo not shown)	6590 nM	–
Cc1ccc(CN2CCN(C)CC2c2ccc(C(=O)O)cc2)c2cc[nH]c12 (stereo not shown)	479 nM	–
COc1cc(C)c2[nH]ccc2c1CN1CCN(CCC(F)(F)F)C[C@H]1c1ccc(C(=O)O)cc1	29 nM	13 nM
CCN1CCN(Cc2c(OC)cc(C)c3[nH]ccc23)C(c2ccc(C(=O)O)cc2)C1 (stereo not shown)	219 nM	205 nM
COc1cc(C)c2[nH]ccc2c1CN1CCN(CCO)CC1c1ccc(C(=O)O)cc1 (stereo not shown)	119 nM	–
COc1cc(C)c2[nH]ccc2c1CN1CCN(CCC(F)(F)F)C[C@H]1c1ccc(C(=O)NS(C)(=O)=O)cc1	56 nM	65 nM
COc1cc(C)c2[nH]ccc2c1CN1CC2(CC2)N(C)C[C@H]1c1ccc(C(=O)O)cc1	7390 nM	–
COc1cc(C)c2[nH]ccc2c1C(=O)N1CCN(C)CC1c1ccc(C(=O)O)cc1 (stereo not shown)	> 10000 nM	–
COc1cc(C)c2[nH]ccc2c1CN1CCN(CC2CCCC2)CC1c1ccc(C(=O)O)cc1 (stereo not shown)	3080 nM	–
COc1cc(C)c2[nH]ccc2c1CN1CCN(C)C[C@H]1c1ccc(C(=O)O)cc1 (single isomer, unassigned)	45 nM	64 nM
COc1cc(C)c2[nH]ccc2c1CN1CCN(CC(C)(F)F)C[C@H]1c1ccc(C(=O)O)cc1	272 nM	211 nM
COc1cc(C)c2[nH]ccc2c1CN1CCN(CC(F)(F)F)C[C@H]1c1ccc(C(=O)NS(C)(=O)=O)cc1	212 nM	382 nM
COc1cc(C)c2[nH]ccc2c1CN1CCN(c2nccs2)C[C@H]1c1ccc(C(=O)O)cc1	> 10000 nM	–
CCC(C)N1CCN(Cc2c(OC)cc(C)c3[nH]ccc23)C(c2ccc(C(=O)O)cc2)C1 (stereo not shown)	405 nM	–

SMILES	IC50 (C3 convertase (CVF:Bb))	IC50 [1]
Cc1cc(C2CC2)c(CN2CCN(CC(F)(F)F)C[C@H]2c2ccc(C(=O)O)cc2)c2cc[nH]c12	348 nM	–
COc1cc(C)c2[nH]ccc2c1CN1CCN(CC(F)F)C[C@H]1c1ccc(C(=O)O)cc1	28 nM	–
COc1cc(C)c2[nH]ccc2c1CN1CCN(Cc2ncc[nH]2)C[C@H]1c1ccc(C(=O)O)cc1	> 10000 nM	8860 nM
[2H]C([2H])([2H])N1CCN(Cc2c(OC)cc(C)c3[nH]ccc23)[C@H](c2ccc(C(=O)O)cc2)C1	65 nM	9 nM
COc1cc(Cl)c2[nH]ccc2c1CN1CCN(CC(F)F)C[C@H]1c1ccc(C(=O)O)cc1 [drawing 446]	3150 nM	–
C#CCN1CCN(Cc2c(OC)cc(C)c3[nH]ccc23)C(c2ccc(C(=O)O)cc2)C1 (stereo not shown)	1070 nM	–
COc1cc(C)c2[nH]ccc2c1CN1CCN(C)C(=O)[C@H]1c1ccc(C(=O)O)cc1	360 nM	1000 nM
COc1cc(C)c2[nH]ccc2c1CN1CCN(Cc2ncco2)C[C@@H]1c1ccc(C(=O)O)cc1	> 10000 nM	–
COc1cc(Cl)c2[nH]ccc2c1CN1CCN(CC(F)F)C[C@H]1c1ccc(C(=O)O)cc1 [drawing 436]	1490 nM	–
COc1cc(C)c2[nH]ccc2c1CN1CCN(CC(F)(F)F)C[C@H]1c1ccc(C(=O)O)cc1	176 nM	174 nM
COc1cc(C)c2[nH]ccc2c1CN1CCN(CC(F)F)C[C@H]1c1ccc(C(=O)NS(C)(=O)=O)cc1	243 nM	8 nM
CCCCN1CCN(Cc2c(OC)cc(C)c3[nH]ccc23)C(c2ccc(C(=O)O)cc2)C1 (stereo not shown)	980 nM	–
COc1cc(C)c2[nH]ccc2c1CN1CCN(C(C)C)CC1c1ccc(C(=O)O)cc1 (stereo not shown)	652 nM	–
Cc1cc(C2CC2)c(CN2CCN(CC(F)F)C[C@H]2c2ccc(C(=O)O)cc2)c2cc[nH]c12 [drawing 450]	–	396 nM
COc1cc(C)c2[nH]ccc2c1CN1CCN(CC(F)F)CC1c1ccc(C(=O)O)cc1 (stereo not shown)	76 nM	36 nM
COc1cc(Cl)c2[nH]ccc2c1CN1CCN(CC(F)(F)F)CC1c1ccc(C(=O)O)cc1 (stereo not shown)	2700 nM	–
CN1CCN(Cc2cccc3[nH]ccc23)C(c2ccc(C(=O)O)cc2)C1 (stereo not shown)	> 10000 nM	–
COc1cc(C)c2[nH]ccc2c1CN1CCN(c2ncccn2)C[C@H]1c1ccc(C(=O)O)cc1	> 10000 nM	–
COc1cc(C)c2[nH]ccc2c1CN1CCN(C2CCCC2)CC1c1ccc(C(=O)O)cc1 (stereo not shown)	3880 nM	–
COc1cc(Cl)c2[nH]ccc2c1CN1CCN(CC(F)(F)F)C[C@H]1c1ccc(C(=O)O)cc1	2350 nM	–

SMILES	IC50 (C3 convertase (CVF:Bb))	IC50 [1]
COc1cc(C)c2[nH]ccc2c1CN1CCN(C(C)=O)CC1c1ccc(C(=O)O)cc1 (stereo not shown)	> 10000 nM	–
COc1cc(C)c2[nH]ccc2c1CN1CCN(C2CC2)C[C@@H]1c1ccc(C(=O)O)cc1 (single isomer, unassigned)	4380 nM	–
Cc1cc(C2CC2)c(CN2CCN(CC(F)F)C[C@@H]2c2ccc(C(=O)O)cc2)c2cc[nH]c12	163 nM	–
COc1cc(C)c2[nH]ccc2c1CN1CCN(Cc2ncc[nH]2)C[C@@H]1c1ccc(C(=O)O)cc1	–	> 10000 nM
COc1cc(C)c2[nH]ccc2c1CN1CCN(C2CCC2)CC1c1ccc(C(=O)O)cc1 (stereo not shown)	2580 nM	–
COc1cc(C)c2[nH]ccc2c1CN1CCN(c2ccccc2)CC1c1ccc(C(=O)O)cc1 (stereo not shown)	> 10000 nM	–
COc1cc(C)c2[nH]ccc2c1CN1CCN(Cc2ncco2)C[C@H]1c1ccc(C(=O)O)cc1	9110 nM	–
COc1cc(C)c2[nH]ccc2c1CN1CCN(CC2CC2)CC1c1ccc(C(=O)O)cc1 (stereo not shown)	2290 nM	–
COc1cc(C)c2[nH]ccc2c1CN1CCN(S(C)(=O)=O)CC1c1ccc(C(=O)O)cc1 (stereo not shown)	9330 nM	–
COc1cc(C)c2[nH]ccc2c1CN1CCN(C2CC2)C[C@H]1c1ccc(C(=O)O)cc1 (single isomer, unassigned)	96 nM	–
COc1cc(C)c2[nH]ccc2c1CN1CCN(CC2CCC2)CC1c1ccc(C(=O)O)cc1 (stereo not shown)	1350 nM	–
COc1cc(C)c2[nH]ccc2c1CN1CCN(C)C[C@@H]1c1ccc(C(=O)O)cc1 (single isomer, unassigned)	> 10000 nM	–
COc1cc(C)c2[nH]ccc2c1CN1CCN(CCF)C[C@@H]1c1ccc(C(=O)O)cc1	42 nM	–
COc1cc(C)c2[nH]ccc2c1CN1CCN(CCCF)C[C@H]1c1ccc(C(=O)O)cc1	99 nM	–
COc1cc(C)c2[nH]ccc2c1CN1CCN(CC(F)F)C[C@@H]1c1ccc(C(=O)O)cc1	80 nM	–
COc1cc(C)c2[nH]ccc2c1CN1CCN(CCC(C)C)CC1c1ccc(C(=O)O)cc1 (stereo not shown)	3200 nM	–
COc1cc(C)c2[nH]ccc2c1CN1CCN(CC(F)F)C[C@H]1c1ccc(C(=O)NS(=O)(=O)C2CC2)cc1	520 nM	–
COc1cc(C)c2[nH]ccc2c1CN1CCN(CC(C)C)CC1c1ccc(C(=O)O)cc1 (stereo not shown)	4670 nM	–
COc1cc(Cl)c2[nH]ccc2c1CN1CCN(CC(F)(F)F)C[C@@H]1c1ccc(C(=O)O)cc1	> 10000 nM	–
COc1cc(C)c2[nH]ccc2c1CN1CCN(c2cccnn2)C[C@H]1c1ccc(C(=O)O)cc1	> 10000 nM	–
